Source: ChEMBL document CHEMBL1909046, “DrugMatrix in vitro pharmacology data”

Columns and labels:
[1] = biological target: Mitogen-activated protein kinase 14 (Homo sapiens, UniProt Q16539); parameters: species or system Escherichia coli;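 further: inhibition of p38alpha enzyme activity in a biochemical kinase assay, with myelin basic protein serving as substrate; in other assays of this panel Not Active means under 50% inhibition at 10 µM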
[2] = DRUGMATRIX: Glutamate, Kainate radioligand binding (ligand: [3H] Kainic acid); type: cell membranes, Rattus norvegicus, Wistar, Brain, Membrane; details: Not Active = under 50% inhibition at 10 µM
[3] = biological target: T1, C-X-C chemokine receptor type 2 (Homo sapiens, UniProt P25025); type: cell membranes, Membrane; details: cho-k1; further: in other assays of this panel Not Active means under 50% inhibition at 10 µM
T1 sequence (P25025 whole entry): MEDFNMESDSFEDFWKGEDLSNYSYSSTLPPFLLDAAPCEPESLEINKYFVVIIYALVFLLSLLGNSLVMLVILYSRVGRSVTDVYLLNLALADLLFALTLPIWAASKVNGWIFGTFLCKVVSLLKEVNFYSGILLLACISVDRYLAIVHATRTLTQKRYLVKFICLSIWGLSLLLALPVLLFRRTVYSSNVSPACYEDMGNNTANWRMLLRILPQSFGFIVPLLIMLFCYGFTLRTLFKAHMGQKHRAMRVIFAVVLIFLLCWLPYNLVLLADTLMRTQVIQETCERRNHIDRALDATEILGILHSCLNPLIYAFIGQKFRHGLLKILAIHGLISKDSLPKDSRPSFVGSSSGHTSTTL

[4] = biological target: T2, C-C chemokine receptor type 4 (Homo sapiens, UniProt P51679); type: cell membranes, Membrane; details: chem-1; further: in other assays of this panel Not Active means under 50% inhibition at 10 µM
T2 sequence (P51679 whole entry): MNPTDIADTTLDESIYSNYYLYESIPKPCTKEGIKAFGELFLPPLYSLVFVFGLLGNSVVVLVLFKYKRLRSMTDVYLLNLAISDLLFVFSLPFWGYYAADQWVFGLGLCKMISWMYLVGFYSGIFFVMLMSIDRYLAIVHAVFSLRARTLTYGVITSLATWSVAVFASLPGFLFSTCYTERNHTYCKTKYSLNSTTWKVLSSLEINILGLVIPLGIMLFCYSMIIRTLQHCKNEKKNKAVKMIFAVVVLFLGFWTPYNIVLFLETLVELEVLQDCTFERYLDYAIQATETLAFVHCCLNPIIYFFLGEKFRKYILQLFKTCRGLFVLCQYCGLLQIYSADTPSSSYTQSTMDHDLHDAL

[5] = biological target: T3, Alpha-2C adrenergic receptor (Homo sapiens, UniProt P18825); assay: DRUGMATRIX: Adrenergic Alpha-2C radioligand binding (ligand: [3H] MK-912); type: cell membranes, Sf9, Membrane
T3 sequence (P18825 whole entry): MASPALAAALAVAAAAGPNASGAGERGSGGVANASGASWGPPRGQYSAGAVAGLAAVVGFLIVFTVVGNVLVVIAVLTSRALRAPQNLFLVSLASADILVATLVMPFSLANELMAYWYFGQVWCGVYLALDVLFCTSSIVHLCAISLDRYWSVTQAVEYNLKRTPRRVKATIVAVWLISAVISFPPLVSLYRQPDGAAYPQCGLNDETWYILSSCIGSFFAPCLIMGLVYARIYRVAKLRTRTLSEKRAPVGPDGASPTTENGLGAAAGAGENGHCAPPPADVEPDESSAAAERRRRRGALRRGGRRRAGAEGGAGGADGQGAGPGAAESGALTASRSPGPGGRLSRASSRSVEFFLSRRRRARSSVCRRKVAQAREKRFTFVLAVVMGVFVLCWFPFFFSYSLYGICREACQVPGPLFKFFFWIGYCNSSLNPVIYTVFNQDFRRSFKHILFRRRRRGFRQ

[6] = biological target: C-C chemokine receptor type 5 (Homo sapiens, UniProt P51681); type: cell membranes, Membrane; details: hek293; further: in other assays of this panel Not Active means under 50% inhibition at 10 µM
Sequence of C-C chemokine receptor type 5 (P51681 whole entry): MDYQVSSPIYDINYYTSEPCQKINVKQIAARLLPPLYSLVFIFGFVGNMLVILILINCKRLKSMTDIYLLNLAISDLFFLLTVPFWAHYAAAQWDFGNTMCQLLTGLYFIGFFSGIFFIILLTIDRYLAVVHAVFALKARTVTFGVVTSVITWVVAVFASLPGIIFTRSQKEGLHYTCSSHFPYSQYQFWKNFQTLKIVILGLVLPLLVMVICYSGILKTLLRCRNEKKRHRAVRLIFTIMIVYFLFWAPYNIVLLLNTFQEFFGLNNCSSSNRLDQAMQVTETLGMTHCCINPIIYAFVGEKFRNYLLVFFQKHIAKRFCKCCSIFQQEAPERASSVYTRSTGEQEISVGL

[7] = DRUGMATRIX: Leukotriene, BLT (LTB4) radioligand binding (ligand: [3H]LTB4); type: cell membranes, Membrane; details: u-937; Not Active = under 50% inhibition at 10 µM
[8] = biological target: Sigma non-opioid intracellular receptor 1 (Homo sapiens, UniProt Q99720); assay: DRUGMATRIX: Sigma1 radioligand binding (ligand: [3H] Haloperidol); type: cell membranes, Jurkat, Membrane; details: jurkat; Not Active = under 50% inhibition at 10 µM
Sequence of Sigma non-opioid intracellular receptor 1 (Q99720 whole entry): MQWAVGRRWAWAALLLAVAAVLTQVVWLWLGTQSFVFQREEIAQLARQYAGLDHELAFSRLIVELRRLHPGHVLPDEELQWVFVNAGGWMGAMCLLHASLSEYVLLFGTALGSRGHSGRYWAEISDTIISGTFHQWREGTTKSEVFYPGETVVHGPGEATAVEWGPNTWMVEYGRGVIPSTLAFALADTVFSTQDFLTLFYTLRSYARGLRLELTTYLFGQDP

[9] = biological target: Delta-type opioid receptor (Homo sapiens, UniProt P41143); type: cell membranes, HEK293, Membrane; further: in other assays of this panel Not Active means under 50% inhibition at 10 µM
Sequence of Delta-type opioid receptor (P41143 whole entry): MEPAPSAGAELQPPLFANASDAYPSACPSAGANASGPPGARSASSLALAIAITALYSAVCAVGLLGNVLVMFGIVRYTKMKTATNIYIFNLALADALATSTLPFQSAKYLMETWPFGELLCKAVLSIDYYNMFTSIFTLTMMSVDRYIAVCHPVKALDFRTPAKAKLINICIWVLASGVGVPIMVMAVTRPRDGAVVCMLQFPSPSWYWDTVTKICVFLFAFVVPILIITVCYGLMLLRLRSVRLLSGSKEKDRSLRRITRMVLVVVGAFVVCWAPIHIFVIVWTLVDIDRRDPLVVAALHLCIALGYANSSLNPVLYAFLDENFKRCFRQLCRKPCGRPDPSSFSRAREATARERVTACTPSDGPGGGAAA

D(1A) dopamine receptor = D(1A) dopamine receptor (Homo sapiens, UniProt P21728); assay: DRUGMATRIX: Dopamine D1 radioligand binding (ligand: [3H] SCH-23390); type: cell membranes, CHO, Membrane; details: cho; Not Active = under 50% inhibition at 10 µM
Sequence of D(1A) dopamine receptor (P21728 whole entry): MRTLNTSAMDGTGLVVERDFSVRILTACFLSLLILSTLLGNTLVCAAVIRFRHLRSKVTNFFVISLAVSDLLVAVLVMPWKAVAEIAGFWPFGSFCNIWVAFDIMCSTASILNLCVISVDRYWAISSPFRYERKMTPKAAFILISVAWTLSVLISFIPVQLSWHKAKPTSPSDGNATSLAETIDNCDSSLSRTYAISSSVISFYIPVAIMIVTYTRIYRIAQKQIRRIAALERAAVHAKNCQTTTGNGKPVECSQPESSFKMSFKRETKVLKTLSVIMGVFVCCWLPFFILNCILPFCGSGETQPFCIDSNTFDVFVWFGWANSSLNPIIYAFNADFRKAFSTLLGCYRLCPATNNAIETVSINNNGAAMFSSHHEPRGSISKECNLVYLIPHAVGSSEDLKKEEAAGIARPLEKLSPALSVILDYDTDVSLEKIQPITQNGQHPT

[10] = biological target: cGMP-specific 3',5'-cyclic phosphodiesterase (Homo sapiens, UniProt O76074); assay: DRUGMATRIX: Phosphodiesterase PDE5 enzyme inhibition (substrate: [3H]cGMP + cGMP); type: tissue-based, Platelet; details: platelet; Not Active = under 50% inhibition at 10 µM
[11] = biological target: C-C chemokine receptor type 2 (Homo sapiens, UniProt P41597); type: cell membranes, CHO-K1, Membrane; details: cho-k1; further: in other assays of this panel Not Active means under 50% inhibition at 10 µM
Sequence of C-C chemokine receptor type 2 (P41597 whole entry): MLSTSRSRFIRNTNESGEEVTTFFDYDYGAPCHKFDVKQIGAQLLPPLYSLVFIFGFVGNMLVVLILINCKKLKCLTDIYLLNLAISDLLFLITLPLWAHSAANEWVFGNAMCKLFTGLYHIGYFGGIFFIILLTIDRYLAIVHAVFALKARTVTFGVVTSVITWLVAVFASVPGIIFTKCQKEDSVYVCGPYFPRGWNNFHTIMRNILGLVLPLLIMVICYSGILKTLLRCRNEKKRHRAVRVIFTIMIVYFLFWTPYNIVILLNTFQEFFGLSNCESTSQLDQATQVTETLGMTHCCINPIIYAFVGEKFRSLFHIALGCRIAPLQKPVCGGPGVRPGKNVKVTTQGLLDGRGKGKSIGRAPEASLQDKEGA

[12] = biological target: Protein kinase C alpha type (Homo sapiens, UniProt P17252); type: cell-based; details: sf9
Substance-K receptor = biological target: T4, Substance-K receptor (Homo sapiens, UniProt P21452); type: cell membranes, CHO, Membrane; details: for Ki: read-out: Ki
T4 sequence (P21452 whole entry): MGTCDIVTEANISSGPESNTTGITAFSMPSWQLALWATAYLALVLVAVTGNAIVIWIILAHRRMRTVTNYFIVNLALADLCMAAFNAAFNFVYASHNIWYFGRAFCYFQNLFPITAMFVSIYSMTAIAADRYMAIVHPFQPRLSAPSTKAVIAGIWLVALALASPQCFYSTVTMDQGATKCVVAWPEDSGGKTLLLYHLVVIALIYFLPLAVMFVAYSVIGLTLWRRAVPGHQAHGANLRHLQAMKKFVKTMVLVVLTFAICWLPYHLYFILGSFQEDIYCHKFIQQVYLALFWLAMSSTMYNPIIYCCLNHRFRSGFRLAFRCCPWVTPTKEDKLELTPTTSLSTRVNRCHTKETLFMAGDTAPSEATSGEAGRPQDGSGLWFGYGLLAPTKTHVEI

[13] = biological target: Kappa-type opioid receptor (Homo sapiens, UniProt P41145); assay: DRUGMATRIX: Opiate kappa (OP2, KOP) radioligand binding (ligand: [3H] Diprenorphine); type: cell membranes, HEK293, Membrane; details: Not Active = under 50% inhibition at 10 µM
Sequence of Kappa-type opioid receptor (P41145 whole entry): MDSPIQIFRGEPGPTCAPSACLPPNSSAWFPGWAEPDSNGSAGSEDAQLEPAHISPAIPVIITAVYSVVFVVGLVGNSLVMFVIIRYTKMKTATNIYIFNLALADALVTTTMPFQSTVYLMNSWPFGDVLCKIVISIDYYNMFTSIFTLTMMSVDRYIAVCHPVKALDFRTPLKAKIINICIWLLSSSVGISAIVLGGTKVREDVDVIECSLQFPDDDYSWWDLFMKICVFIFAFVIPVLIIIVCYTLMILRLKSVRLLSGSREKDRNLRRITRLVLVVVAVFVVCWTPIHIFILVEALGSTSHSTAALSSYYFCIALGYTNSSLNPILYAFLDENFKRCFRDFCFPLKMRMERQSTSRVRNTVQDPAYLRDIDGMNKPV

[14] = DRUGMATRIX: Atrial Natriuretic Factor (ANF) radioligand binding (ligand: [125I] ANF (rat)); type: cell membranes, Cavia porcellus, Dunkin-Hartley, Adrenal gland, Membrane; details: Not Active = under 50% inhibition at 10 µM

Sequence of Mitogen-activated protein kinase 14 (Q16539 whole entry): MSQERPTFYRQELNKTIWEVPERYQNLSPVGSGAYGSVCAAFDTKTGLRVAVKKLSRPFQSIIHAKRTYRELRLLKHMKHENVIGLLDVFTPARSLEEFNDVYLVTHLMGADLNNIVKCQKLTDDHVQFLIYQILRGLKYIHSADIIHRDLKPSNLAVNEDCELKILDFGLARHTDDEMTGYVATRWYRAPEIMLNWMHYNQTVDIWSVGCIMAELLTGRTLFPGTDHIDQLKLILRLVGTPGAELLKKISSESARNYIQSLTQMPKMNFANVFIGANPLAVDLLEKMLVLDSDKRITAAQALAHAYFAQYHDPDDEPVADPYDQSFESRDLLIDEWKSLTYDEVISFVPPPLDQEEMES

| Structure (SMILES) | IC50 [1] | IC50 [2] | Ki [2] | IC50 [3] | IC50 [4] | IC50 ([5]; sf9) | IC50 [6] | IC50 [7] | Ki [7] | IC50 [8] | IC50 ([9]; hek293) | IC50 (D(1A) dopamine receptor) | IC50 [10] | IC50 [11] | IC50 [12] | IC50 (Substance-K receptor; cho) | IC50 ([13]; hek293) | IC50 [14] | Ki [14] | other results |
| --- | --- | --- | --- | --- | --- | --- | --- | --- | --- | --- | --- | --- | --- | --- | --- | --- | --- | --- | --- | --- |
| CCOC(=O)[C@H](CCc1ccccc1)N[C@@H](C)C(=O)N1[C@H](C(=O)O)C[C@@H]2CCC[C@@H]21 | Not Active | Not Active | Not Active | Not Active | Not Active | Not Active | Not Active | Not Active | Not Active | Not Active | Not Active | Not Active | Not Active | Not Active | Not Active | Not Active | Not Active | Not Active | Not Active | – |
| CC(C)(C)NC(=O)[C@@H]1CN(Cc2cccnc2)CCN1C[C@@H](O)C[C@@H](Cc1ccccc1)C(=O)N[C@H]1c2ccccc2C[C@H]1O.O | Not Active | Not Active | Not Active | Not Active | Not Active | Not Active | Not Active | Not Active | Not Active | Not Active | Not Active | Not Active | Not Active | Not Active | Not Active | – | Not Active | Not Active | Not Active | IC50 (Substance-K receptor; read-out: IC50): 5100 nM; Ki (Substance-K receptor): 1700 nM |
| CC1(C)[C@H]2CC[C@]1(C)C(=O)C2 [(-)-CAMPHOR] | Not Active | Not Active | Not Active | Not Active | Not Active | Not Active | Not Active | Not Active | Not Active | Not Active | Not Active | Not Active | Not Active | Not Active | Not Active | Not Active | Not Active | Not Active | Not Active | – |
| CC(C)(C)NCC(O)c1ccc(O)c(CO)c1 (centres undefined) [ALBUTEROL] | Not Active | Not Active | Not Active | Not Active | Not Active | Not Active | Not Active | Not Active | Not Active | Not Active | Not Active | Not Active | Not Active | Not Active | Not Active | Not Active | Not Active | Not Active | Not Active | – |
| Clc1ccccc1C(c1ccccc1)(c1ccccc1)n1ccnc1 [CLOTRIMAZOLE] | Not Active | – | – | Not Active | Not Active | – | Not Active | – | – | Not Active | – | – | Not Active | Not Active | Not Active | – | – | – | – | IC50 ([9]; read-out: IC50): 4980 nM; Ki ([9]; read-out: Ki): 1760 nM; IC50 (Substance-K receptor; read-out: IC50): 10100 nM; Ki (Substance-K receptor): 3380 nM; Ki [13]: 2520 nM; IC50 ([13]; read-out: IC50): 6300 nM |
| Oc1c(I)cc(I)c2cccnc12 [IODOQUINOL] | – | Not Active | Not Active | Not Active | Not Active | Not Active | Not Active | Not Active | Not Active | Not Active | Not Active | Not Active | Not Active | Not Active | Not Active | Not Active | Not Active | Not Active | Not Active | IC50 ([1]; read-out: IC50): 364 nM |
| CN1CCN2c3ccccc3Cc3ccccc3C2C1 (centres undefined) [MIANSERIN] | Not Active | – | – | Not Active | Not Active | – | Not Active | – | – | Not Active | Not Active | – | Not Active | Not Active | Not Active | Not Active | Not Active | – | – | IC50 ([5]; read-out: IC50): 179 nM; Ki ([5]; read-out: Ki): 26 nM |
| CC(=O)[C@H]1CC[C@H]2[C@@H]3CCC4=CC(=O)CC[C@]4(C)[C@H]3CC[C@]12C [PROGESTERONE] | Not Active | Not Active | Not Active | Not Active | Not Active | Not Active | Not Active | Not Active | Not Active | – | Not Active | Not Active | Not Active | Not Active | Not Active | Not Active | Not Active | Not Active | Not Active | – |
| COC(=O)[C@@H]1[C@H]2C[C@H]3c4[nH]c5ccccc5c4CCN3C[C@@H]2CC[C@@H]1O [YOHIMBINE] | Not Active | Not Active | Not Active | Not Active | Not Active | – | Not Active | Not Active | Not Active | Not Active | Not Active | Not Active | Not Active | Not Active | Not Active | Not Active | Not Active | Not Active | Not Active | – |
